According to US11214594B2, “Antimicrobial peptide having synergistic antibacterial effect with antibiotics on multidrug resistant bacteria, and use thereof” (priority 2016, dated 2022):
In brackets after ≈: the same amount, converted by molar mass. Where a SMILES comes first, the peptide text is derived from it. [ ]: non-standard residue; d: D form.

What was measured:
[1] = system: E. coli; assay: microbe, parasite or virus in culture; type: cell-based, Escherichia coli; settings: 16 h
Summary of the method: (§1)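 MIC read-out = lowest peptide level with no bacterial proliferation. Strains diluted in MH medium to 2×10^6 CFU; peptide twofold serial dilutions in MH added 1:1 in microtiter wells.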

[2] = system: MDREC 1229; assay: microbe, parasite or virus in culture; type: cell-based, Escherichia coli
Summary of the method: as §1

[3] = system: MDREC 1238; type: cell-based, Escherichia coli
Summary of the method: as §1

[4] = system: MDRPA 2002; type: cell-based, Pseudomonas aeruginosa
Summary of the method: as §1

[5] = system: MDRPA 2003; type: cell-based, Pseudomonas aeruginosa
Summary of the method: as §1

[6] = system: MDRAB 12036; type: cell-based, Acinetobacter baumannii
Summary of the method: as §1

[7] = system: S. typhimurium; assay: microbe, parasite or virus in culture; type: cell-based, Salmonella typhimurium
Summary of the method: as §1

[8] = system: MDRST 8009; type: cell-based, Salmonella typhimurium; settings: agent alone
Summary of the method: as §1

[9] = system: B. subtilis; assay: microbe, parasite or virus in culture; type: cell-based, Bacillus subtilis
Summary of the method: as §1

[10] = system: S. aureus; assay: microbe, parasite or virus in culture; type: cell-based, Staphylococcus aureus
Summary of the method: as §1

[11] = system: MRSA 3114; type: cell-based, Staphylococcus aureus; settings: 3114
Summary of the method: as §1

[12] = system: MRSA 3126; type: cell-based, Staphylococcus aureus; settings: 3126
Summary of the method: as §1

[13] = system: MDREC 1229; assay: MIC of antibiotic during combined treatment with antimicrobial peptide; type: cell-based, Escherichia coli
Summary of the method: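 Strains in MH medium at 2×10^6 CFU/ml were mixed with peptide diluted stepwise (2:1) from its MIC, then antibiotic dilutions in MH medium were added to give the antibiotic MIC. The reversed set-up, peptide titrated against fixed antibiotic, gave the peptide MIC.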

[14] = system: multi-drug resistant bacteria; assay: MIC, summary statements for multi-drug resistant bacteria; type: cell-based
Summary of the method: as §1

[15] = peptide treatment concentration 1 μg/ml
[16] = peptide treatment concentration 2 μg/ml
[17] = peptide treatment concentration 4 μg/ml
[18] = peptide treatment concentration 6 μg/ml
[19] = peptide treatment concentration 8 μg/ml
[20] = peptide treatment concentration 16 μg/ml
[21] = peptide treatment concentration 32 μg/ml
[22] = peptide treatment concentration 64 μg/ml

| SMILES | Minimal inhibitory concentration MIC [1] [µg/mL] | Minimal inhibitory concentration MIC [2] [µg/mL] | Peptide MIC, peptide alone [2] [µg/mL] | Minimal inhibitory concentration MIC [3] [µg/mL] | Minimal inhibitory concentration MIC [4] [µg/mL] | Minimal inhibitory concentration MIC [5] [µg/mL] | Minimal inhibitory concentration MIC [6] [µg/mL] | Minimal inhibitory concentration MIC [7] [µg/mL] | Minimal inhibitory concentration MIC [8] [µg/mL] | Minimal inhibitory concentration MIC [9] [µg/mL] | Minimal inhibitory concentration MIC [10] [µg/mL] | Minimal inhibitory concentration MIC [11] [µg/mL] | Minimal inhibitory concentration MIC [12] [µg/mL] | Antibiotic MIC, Erythromycin [13, 15] [µg/mL] | Antibiotic MIC, Linezolid [13, 15] [µg/mL] | Antibiotic MIC, Vancomycin [13, 15] [µg/mL] | Antibiotic MIC, Erythromycin [13, 16] [µg/mL] | Antibiotic MIC, Linezolid [13, 16] [µg/mL] | Antibiotic MIC, Vancomycin [13, 16] [µg/mL] | Antibiotic MIC, Erythromycin [13, 17] [µg/mL] | also measured |
| --- | --- | --- | --- | --- | --- | --- | --- | --- | --- | --- | --- | --- | --- | --- | --- | --- | --- | --- | --- | --- | --- |
| CC[C@H](C)[C@H](NC(=O)[C@H](CCCCN)NC(=O)[C@H](Cc1c[nH]c2ccccc12)NC(=O)[C@@H](N)CCCNC(=N)N)C(=O)N[C@@H](Cc1ccccc1)C(=O)N[C@@H](CCCCN)C(=O)N[C@@H](CCCCN)C(=O)N[C@H](C(=O)N[C@H](CCCCN)C(=O)N[C@@H](CCCCN)C(=O)N[C@@H](CC(C)C)C(=O)N[C@@H](CC(C)C)C(=O)N[C@@H](Cc1c[nH]cn1)C(=O)N[C@@H](CCC(=O)O)C(=O)N[C@@H](Cc1ccccc1)C(=O)N[C@@H](CCCCN)C(=O)N[C@@H](CCCCN)C(=O)N[C@@H](Cc1ccccc1)C(N)=O)[C@@H](C)CC [PapMA-19, RWK IFK KIk KLL HEF KKF-NH2] (H-RWKIFKKI[dK]KLLHEFKKF-NH2; N-terminus assumed) | 32 (≈ 13.2 µM) | 32 (≈ 13.2 µM) | 32 | 32 (≈ 13.2 µM) | 64 (≈ 26.5 µM) | 64 (≈ 26.5 µM) | 32 (≈ 13.2 µM) | 32 (≈ 13.2 µM) | 64 (≈ 26.5 µM) | >128 | >128 | >128 | >128 | 128 | >128 | >128 | 32 | 128 | 128 | 8 | Antibiotic MIC, Linezolid [13, 17]: 32 µg/mL; Antibiotic MIC, Vancomycin [13, 17]: 64 µg/mL; Antibiotic MIC, Erythromycin [13, 18]: 2 µg/mL; Antibiotic MIC, Linezolid [13, 18]: 16 µg/mL; Antibiotic MIC, Vancomycin [13, 18]: 8 µg/mL; Antibiotic MIC, Erythromycin [13, 19]: 1 µg/mL; Antibiotic MIC, Linezolid [13, 19]: 16 µg/mL; Antibiotic MIC, Vancomycin [13, 19]: 8 µg/mL; Antibiotic MIC, Erythromycin [13, 20]: 0.5 µg/mL; Antibiotic MIC, Linezolid [13, 20]: 4 µg/mL; Antibiotic MIC, Vancomycin [13, 20]: 4 µg/mL; Antibiotic MIC, Erythromycin [13, 21]: 0 µg/mL; Antibiotic MIC, Linezolid [13, 21]: 0 µg/mL; Antibiotic MIC, Vancomycin [13, 21]: 0 µg/mL; Antibiotic MIC, Erythromycin [13, 22]: 0 µg/mL; Antibiotic MIC, Linezolid [13, 22]: 0 µg/mL; Antibiotic MIC, Vancomycin [13, 22]: 0 µg/mL; Antibacterial activity relative to PapMA-1 [14]: twice to four times higher |
| CC[C@H](C)[C@H](NC(=O)[C@H](CCCCN)NC(=O)[C@H](Cc1c[nH]c2ccccc12)NC(=O)[C@@H](N)CCCNC(=N)N)C(=O)N[C@@H](Cc1ccccc1)C(=O)N[C@@H](CCCCN)C(=O)N[C@@H](CCCCN)C(=O)N[C@H](C(=O)N[C@H](CCCCN)C(=O)N[C@@H](CCCCN)C(=O)N[C@@H](CC(C)C)C(=O)N[C@@H](CC(C)C)C(=O)N[C@@H](Cc1c[nH]cn1)C(=O)N[C@@H](CCCCN)C(=O)N[C@@H](Cc1ccccc1)C(=O)N[C@@H](CCCCN)C(=O)N[C@@H](CCCCN)C(=O)N[C@@H](Cc1ccccc1)C(N)=O)[C@@H](C)CC [PapMA-17, RWK IFK KIk KLL HKF KKF-NH2] (H-RWKIFKKI[dK]KLLHKFKKF-NH2; N-terminus assumed) | 16 (≈ 6.62 µM) | 16 (≈ 6.62 µM) | 16 | 32 (≈ 13.2 µM) | 16 (≈ 6.62 µM) | 16 (≈ 6.62 µM) | 32 (≈ 13.2 µM) | 32 (≈ 13.2 µM) | 64 (≈ 26.5 µM) | >128 | >128 | >128 | >128 | >128 | >128 | >128 | 32 | >128 | >128 | 16 | Antibiotic MIC, Linezolid [13, 17]: 64 µg/mL; Antibiotic MIC, Vancomycin [13, 17]: 64 µg/mL; Antibiotic MIC, Erythromycin [13, 18]: 8 µg/mL; Antibiotic MIC, Linezolid [13, 18]: 16 µg/mL; Antibiotic MIC, Vancomycin [13, 18]: 32 µg/mL; Antibiotic MIC, Erythromycin [13, 19]: 4 µg/mL; Antibiotic MIC, Linezolid [13, 19]: 16 µg/mL; Antibiotic MIC, Vancomycin [13, 19]: 16 µg/mL; Antibiotic MIC, Erythromycin [13, 20]: 0 µg/mL; Antibiotic MIC, Linezolid [13, 20]: 0 µg/mL; Antibiotic MIC, Vancomycin [13, 20]: 0 µg/mL; Antibiotic MIC, Erythromycin [13, 21]: 0 µg/mL; Antibiotic MIC, Linezolid [13, 21]: 0 µg/mL; Antibiotic MIC, Vancomycin [13, 21]: 0 µg/mL; Antibiotic MIC, Erythromycin [13, 22]: 0 µg/mL; Antibiotic MIC, Linezolid [13, 22]: 0 µg/mL; Antibiotic MIC, Vancomycin [13, 22]: 0 µg/mL; Antibacterial activity relative to PapMA-1 [14]: twice to four times higher |
| CC[C@H](C)[C@H](NC(=O)[C@H](CCCCN)NC(=O)[C@H](Cc1c[nH]c2ccccc12)NC(=O)[C@@H](N)CCCNC(=N)N)C(=O)N[C@@H](Cc1ccccc1)C(=O)N[C@@H](CCCCN)C(=O)N[C@@H](CCCCN)C(=O)N[C@H](C(=O)N[C@H](CC(C)C)C(=O)N[C@@H](CCCCN)C(=O)N[C@@H](CC(C)C)C(=O)N[C@@H](CC(C)C)C(=O)N[C@@H](Cc1c[nH]cn1)C(=O)N[C@@H](CCC(=O)O)C(=O)N[C@@H](C)C(=O)N[C@@H](CCCCN)C(=O)N[C@@H](CCCCN)C(=O)N[C@@H](Cc1c[nH]c2ccccc12)C(N)=O)[C@@H](C)CC [PapMA-24, RWK IFK KIl KLL HEA KKW-NH2] (H-RWKIFKKI[dL]KLLHEAKKW-NH2; N-terminus assumed) | 32 (≈ 13.5 µM) | 32 (≈ 13.5 µM) | 32 | 32 (≈ 13.5 µM) | 64 (≈ 27.1 µM) | 64 (≈ 27.1 µM) | 32 (≈ 13.5 µM) | 32 (≈ 13.5 µM) | 32 (≈ 13.5 µM) | >128 | >128 | >128 | >128 | 128 | >128 | >128 | 64 | 128 | >128 | 32 | Antibiotic MIC, Linezolid [13, 17]: 64 µg/mL; Antibiotic MIC, Vancomycin [13, 17]: >128 µg/mL; Antibiotic MIC, Erythromycin [13, 18]: 8 µg/mL; Antibiotic MIC, Linezolid [13, 18]: 64 µg/mL; Antibiotic MIC, Vancomycin [13, 18]: 64 µg/mL; Antibiotic MIC, Erythromycin [13, 19]: 2 µg/mL; Antibiotic MIC, Linezolid [13, 19]: 32 µg/mL; Antibiotic MIC, Vancomycin [13, 19]: 32 µg/mL; Antibiotic MIC, Erythromycin [13, 20]: 1 µg/mL; Antibiotic MIC, Linezolid [13, 20]: 8 µg/mL; Antibiotic MIC, Vancomycin [13, 20]: 16 µg/mL; Antibiotic MIC, Erythromycin [13, 21]: 0 µg/mL; Antibiotic MIC, Linezolid [13, 21]: 0 µg/mL; Antibiotic MIC, Vancomycin [13, 21]: 0 µg/mL; Antibiotic MIC, Erythromycin [13, 22]: 0 µg/mL; Antibiotic MIC, Linezolid [13, 22]: 0 µg/mL; Antibiotic MIC, Vancomycin [13, 22]: 0 µg/mL; Antibacterial activity relative to PapMA-1 [14]: twice to four times higher |
